Among the test systems are A498 renal; HCT-15 colon; KM12 colon; OVCAR-3 ovarian; OVCAR-4 ovarian; SK-MEL-2 melanoma; SK-MEL-28 melanoma; RXF 393 renal; HCT-116 colon.
What all share (assay): DTP human tumour cell line panel, 48 h

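Step 1: Grow cells in 96-well plates. Step 2: Expose to compound for 48 hours at 5 concentrations. Step 3: Interpolate endpoints linearly; if unreached, use highest concentration. GI50 is the concentration that inhibits growth by half. TGI marks complete inhibition of growth.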

One may read the TGI as the concentration giving total growth inhibition. High values mean lower sensitivity of the cells, low ones greater sensitivity of the cells. As for `Nc1c(C(=O)NC23CC4CC(CC(C4)C2)C3)[n+]([O-])c2ccccc2[n+]1[O-]`, the total growth inhibition concentration (TGI) in the assay on A498 renal, with HCT-15 colon, in the assay with KM12 colon, in the assay on OVCAR-3 ovarian, with OVCAR-4 ovarian and in the assay on SK-MEL-2 melanoma was more than 100 µM throughout. For the same molecule, the TGI with SK-MEL-28 melanoma was more than 100 µM.

Regarding `ClC1c2ccccc2C2(c3ccccc3)OOC1(c1ccccc1)O2` (stereo unspecified), the concentration for total growth inhibition (TGI) was 4.45 µM in the assay on A498 renal; 3.24 µM with HCT-15 colon; 3.63 µM with KM12 colon; 3.3 µM with OVCAR-3 ovarian; 3.08 µM in the assay with OVCAR-4 ovarian; 2.83 µM with RXF 393 renal. Further, the results for the TGI with SK-MEL-2 melanoma and with SK-MEL-28 melanoma were 5.64 µM and 3.8 µM, respectively.

For orientation: GI50 means the concentration that inhibits growth by half. As to `CCSc1ccc([C@@H]2[C@@H](N)C(=O)N2c2cc(OC)c(OC)c(OC)c2)cc1`, the GI50 was 0.0563 µM with A498 renal; 0.0448 µM in the assay with HCT-116 colon; 0.0654 µM in the assay with HCT-15 colon; 0.0533 µM with KM12 colon; 0.0338 µM in the assay on OVCAR-3 ovarian; 9.31 µM with OVCAR-4 ovarian. Also, the concentration for 50% growth inhibition (GI50) was 0.245 µM in the assay with RXF 393 renal, 0.047 µM in the assay with SK-MEL-2 melanoma and 3.79 µM in the assay on SK-MEL-28 melanoma. In addition, the concentration for total growth inhibition (TGI) is 8.29 µM in the assay with A498 renal; more than 100 µM with HCT-116 colon; more than 100 µM in the assay on HCT-15 colon; more than 100 µM in the assay with KM12 colon; 2.08 µM with OVCAR-3 ovarian; more than 100 µM with OVCAR-4 ovarian. Moreover, the TGI with RXF 393 renal, in the assay on SK-MEL-2 melanoma and with SK-MEL-28 melanoma was more than 100 µM in each case.

In the case of `CC(O)C(NC(=O)c1ccccc1)C(=O)N(Cc1ccccc1)Cc1ccccc1` (stereo unspecified), the TGI in the assay on A498 renal, in the assay with HCT-15 colon, in the assay on KM12 colon, in the assay on OVCAR-3 ovarian, with OVCAR-4 ovarian and with SK-MEL-2 melanoma was more than 100 µM each time. In the assay with SK-MEL-28 melanoma, this molecule came in with a TGI of more than 100 µM.

On to `CCCCCCCCCCCCCCCC(=O)OCC1OC(OC)C(NC(=O)N(CCCl)N=O)C(O)C1O` (stereo unspecified), for which the TGI in the assay on A498 renal came out at 61.3 µM; with HCT-116 colon, 26.8 µM; in the assay with HCT-15 colon, 35.4 µM; in the assay with KM12 colon it was 56.2 µM; in the assay with OVCAR-3 ovarian, 48.6 µM; with OVCAR-4 ovarian, 53.4 µM. Further, the values for the TGI in the assay with RXF 393 renal, in the assay with SK-MEL-2 melanoma and with SK-MEL-28 melanoma were 32.7 µM, 36.8 µM and more than 85.4 µM, respectively.

As for `CCC(C)c1cccc(C)c1NC(=O)C(=O)Cc1nc2ccccc2s1` (stereo unspecified), the TGI in the assay on A498 renal, in the assay on HCT-116 colon, in the assay with HCT-15 colon, in the assay with KM12 colon, with OVCAR-3 ovarian and in the assay on OVCAR-4 ovarian was more than 100 µM throughout. Also, the total growth inhibition concentration (TGI) in the assay with RXF 393 renal, in the assay on SK-MEL-2 melanoma and in the assay on SK-MEL-28 melanoma was more than 100 µM each time.

For the molecule `CN(C)CCNC(=O)c1c2ccccc2cc2ccccc12`, the TGI in the assay with A498 renal, in the assay with HCT-116 colon, with HCT-15 colon, in the assay on KM12 colon, with OVCAR-3 ovarian and in the assay on OVCAR-4 ovarian was more than 100 µM throughout. In addition, the concentration for total growth inhibition (TGI) with RXF 393 renal came out at 99 µM; with SK-MEL-2 melanoma, 36.8 µM; with SK-MEL-28 melanoma, 64.4 µM.

For the molecule `C[N+](C)(C)CC(CC(=O)[O-])C1CC1` (stereo unspecified), the total growth inhibition concentration (TGI) in the assay on A498 renal, with HCT-15 colon, in the assay on KM12 colon, in the assay on OVCAR-3 ovarian, with OVCAR-4 ovarian and with RXF 393 renal was more than 100 µM throughout. Besides, the concentration for total growth inhibition (TGI) in the assay on SK-MEL-2 melanoma and in the assay on SK-MEL-28 melanoma was more than 100 µM each time.

As for `O=C1/C(=C/c2ccc(Cl)c(Cl)c2)CNC/C1=C\c1ccc(Cl)c(Cl)c1`, the concentration for total growth inhibition (TGI) is 32.2 µM with A498 renal; 5.66 µM in the assay with HCT-116 colon; 7.95 µM in the assay with HCT-15 colon; 24.9 µM with KM12 colon; 7.54 µM in the assay on OVCAR-3 ovarian; 6.3 µM in the assay on OVCAR-4 ovarian. The values for the TGI with RXF 393 renal, with SK-MEL-2 melanoma and in the assay with SK-MEL-28 melanoma were 29.5 µM, 49.3 µM and 62.9 µM, respectively.

As for `O=c1ccn(C2(CO)C=C(CO)C(O)C2O)c(=O)[nH]1` (stereo unspecified), the TGI in the assay on A498 renal, in the assay on HCT-116 colon, in the assay on HCT-15 colon, in the assay with KM12 colon, in the assay with OVCAR-3 ovarian and in the assay on OVCAR-4 ovarian was more than 25.7 µM in each case. In addition, the concentration for total growth inhibition (TGI) with RXF 393 renal, in the assay on SK-MEL-2 melanoma and in the assay with SK-MEL-28 melanoma was more than 25.7 µM each time.

As to `CNc1ccc([N+](=O)[O-])c2c(NCCCN(C)C)ccnc12`, the total growth inhibition concentration (TGI) in the assay with HCT-116 colon, in the assay on HCT-15 colon, in the assay with KM12 colon, in the assay with OVCAR-3 ovarian, in the assay on OVCAR-4 ovarian and in the assay on SK-MEL-2 melanoma was more than 100 µM each time. Besides, in the assay with SK-MEL-28 melanoma, the concentration for total growth inhibition (TGI) was more than 100 µM.

Regarding `O=C(Oc1ccc2c(-c3ccccc3)c(C(=O)Nc3ccc(Cl)cc3)c(=O)oc2c1)c1ccccc1`, the TGI in the assay on HCT-116 colon, with HCT-15 colon, in the assay on KM12 colon, in the assay with OVCAR-3 ovarian, with RXF 393 renal and in the assay on SK-MEL-2 melanoma was more than 100 µM throughout. Further, the TGI in the assay with SK-MEL-28 melanoma is more than 100 µM.

As for `CN1C(=O)CCC1c1ccc2c(c1)oc(=O)n2C` (stereo unspecified), the concentration for total growth inhibition (TGI) in the assay with HCT-116 colon, with HCT-15 colon, in the assay on KM12 colon, in the assay on OVCAR-4 ovarian, with RXF 393 renal and in the assay on SK-MEL-2 melanoma was more than 100 µM each time. This molecule yielded a concentration for total growth inhibition (TGI) in the assay on SK-MEL-28 melanoma of more than 100 µM.

In the case of `NC(CCc1ncc(-c2ccccc2)s1)C(=O)O` (stereo unspecified), the total growth inhibition concentration (TGI) in the assay with A498 renal, with HCT-116 colon, in the assay with HCT-15 colon, with KM12 colon, in the assay on OVCAR-3 ovarian and with RXF 393 renal was more than 100 µM each time. The molecule also registered a concentration for total growth inhibition (TGI) in the assay with SK-MEL-28 melanoma of more than 100 µM.

`CC(C)CN1CC(C)C(=O)NC1=O` (stereo unspecified): the TGI in the assay with A498 renal, in the assay on KM12 colon, with OVCAR-4 ovarian, in the assay on RXF 393 renal, with SK-MEL-2 melanoma and with SK-MEL-28 melanoma was more than 100 µM throughout.

Regarding `C=C1CCC2C(C)(CO)C(O)CCC2(C)C1C/C=C1/CCOC1=O` (stereo unspecified), the total growth inhibition concentration (TGI) with A498 renal, with HCT-116 colon, with HCT-15 colon, in the assay on KM12 colon, in the assay with OVCAR-3 ovarian and in the assay on OVCAR-4 ovarian was more than 100 µM in each case. Also, the TGI with SK-MEL-2 melanoma was more than 100 µM.

For `CCOC(OCC)C(CC)[Se]c1ccccc1` (stereo unspecified), the total growth inhibition concentration (TGI) in the assay on A498 renal is more than 100 µM; with HCT-116 colon, more than 100 µM; with HCT-15 colon, 35 µM; in the assay on KM12 colon, more than 100 µM; in the assay with OVCAR-3 ovarian, more than 100 µM; in the assay on OVCAR-4 ovarian, more than 100 µM. For the same molecule, the TGI in the assay on RXF 393 renal, in the assay on SK-MEL-2 melanoma and in the assay with SK-MEL-28 melanoma was more than 100 µM each time.

On to `COc1ccc(N=Nc2c(-c3ccccc3)nn(C(=O)CC(=O)Nc3ccccc3Cl)c2-c2ccccc2)cc1`, for which the total growth inhibition concentration (TGI) with A498 renal, in the assay on HCT-116 colon, with HCT-15 colon, in the assay on KM12 colon, with OVCAR-3 ovarian and in the assay on OVCAR-4 ovarian was more than 100 µM in each case. The TGI with RXF 393 renal and with SK-MEL-28 melanoma was more than 100 µM each time.

Turning to `Cc1ccc(NC(=O)/C(=N/NC(=O)C[N+](C)(C)C)c2nc3ccccc3[nH]c2=O)cc1`, the TGI in the assay on A498 renal, in the assay with HCT-116 colon, in the assay with HCT-15 colon, in the assay with OVCAR-3 ovarian, with OVCAR-4 ovarian and with RXF 393 renal was more than 100 µM throughout. For the same molecule, the total growth inhibition concentration (TGI) in the assay with SK-MEL-2 melanoma and with SK-MEL-28 melanoma was more than 100 µM in each case.

In the case of `CN(C)C(=S)/N=c1\ss/c(=N\C(=S)N(C)C)n1Cc1ccco1`, the TGI with A498 renal, in the assay on HCT-116 colon, in the assay with HCT-15 colon, in the assay with KM12 colon, in the assay on OVCAR-4 ovarian and in the assay with RXF 393 renal was more than 100 µM throughout. Moreover, the TGI in the assay on SK-MEL-2 melanoma and in the assay with SK-MEL-28 melanoma was more than 100 µM each time.

As to `CN(C(=O)C12C3C4C1C1C2C3C41C(O)C(C)(C)C)C(C)(C)C` (stereo unspecified), the TGI with A498 renal, with HCT-116 colon, with KM12 colon, in the assay with OVCAR-3 ovarian, in the assay on OVCAR-4 ovarian and in the assay with SK-MEL-2 melanoma was more than 100 µM throughout. The TGI with SK-MEL-28 melanoma is more than 100 µM.

Consider `Cn1nc2ccc3nccc(NCCNCCO)c3c2n1`, for which the TGI in the assay on HCT-116 colon is 89.4 µM; with HCT-15 colon, more than 100 µM; in the assay on KM12 colon, more than 100 µM; with OVCAR-3 ovarian, more than 100 µM; in the assay on OVCAR-4 ovarian, more than 100 µM; with RXF 393 renal it was 87.5 µM. This molecule returned a concentration for total growth inhibition (TGI) in the assay on SK-MEL-28 melanoma of more than 100 µM.

As to `CCOC(=O)C(=O)Nc1ccccc1OCC`, the TGI in the assay on HCT-116 colon, with KM12 colon, in the assay with OVCAR-3 ovarian, with OVCAR-4 ovarian, in the assay with RXF 393 renal and with SK-MEL-2 melanoma was more than 100 µM throughout. Besides, the TGI with SK-MEL-28 melanoma is more than 100 µM.

As to `c1ccc2c(c1)Sc1ccccc1N2C1CN2CCC1CC2` (stereo unspecified), the TGI in the assay with A498 renal amounted to 22.5 µM; in the assay with HCT-116 colon it was 28.8 µM; in the assay on HCT-15 colon it was 34 µM; with KM12 colon it was 33.9 µM; in the assay on OVCAR-3 ovarian it was 31.5 µM; with OVCAR-4 ovarian, 35.2 µM. In addition, the values for the TGI in the assay with SK-MEL-2 melanoma and in the assay on SK-MEL-28 melanoma were 16.8 µM and 32.1 µM, respectively.

These data come from PubChem BioAssay (NCI).
